# Results reported in patent publication US20190144368A1, “Compounds and compositions for biofilm prevention” (INHIBIO AS, priority 2016, published 2019).
# Test system: Salmonella (one strain)
# Assay: Effect of increased temperature on 1,3-cyclohexanedione: biofilm formation after heating the solution
# Assay type: cell-based
# Conditions: 72 hours at 20 °C
# Procedure: The experiment was performed using 1,3-cyclohexanedione at a concentration of 1 mg/ml. One strain of Salmonella was used in this study. All strains were stored at −80° C. in BHI (Difco, BD, Franklin Lakes, N.J., USA) supplemented […] with 15% glycerine (Merck KGaA, Darmstadt, Germany) and were recovered on blood agar at 37.0±1.0° C. The bacterial culture was transferred into LB broth and was incubated statically overnight at 37.0±1.0° C. to obtain an overnight working culture. 1,3-cyclohexanedione was diluted in LB wo/NaCl at a concentration of 1 mg/ml and divided into 4 tubes. The tubes were heated, for two minutes, to 80° C., 90° C., 100° C. and the last tube was not heated and included as a control. 100 μl from each tube was added to a sterile 96-wells polystyrene microtiter plates (Nunc, Nuncleon, Roskilde, Denmark) together with 30 μl bacterial culture or 30 μl LB^wo/NaCl in the case of the blank controls. The plates were incubated for 72 hours at 20° C. The plate was emptied and washed twice using 200 μl tap water in each well each time. This was followed by the addition of 140 μl 1% Crystal violet to each well and, after 30 minutes, the plate was again emptied and washed 3 times using 200 μl tap water. 140 μl etanol:acetone 70:30 was added and OD595 was measured after 10 minutes. For each strain, the result was calculated by subtracting the median OD595 of the three parallels of the control (test broth only) from the median OD595 of the three parallels of sample. At least two experiments were performed and the average was estimated.
compound,measurement,setting,value
"O=C1CCCC(=O)C1 [1,3-cyclohexanedione]",decrease in biofilm formation compared to the control,1 mg/ml solution heated to 80 °C for two minutes,38%
same,decrease in biofilm formation compared to the control,1 mg/ml solution heated to 90 °C for two minutes,40%
same,decrease in biofilm formation compared to the control,1 mg/ml solution heated to 100 °C for two minutes,28%
same,decrease in biofilm formation compared to the control,1 mg/ml unheated solution,46%
